Results as given in patent US7449466B2, “Cyclic aminophenyl sulfamate derivative” (Aska Pharmaceutical Co., Ltd., priority 2003, dated 2008).

What was measured:
[1] = test system: Salmonella typhimurium TA100 and TA98, and Escherichia coli WP2 uvrA strains; assay: Miniscreen method, bacterial reverse mutation, with and without metabolic activation; format: cell-based; conditions: 10-1,000 μg/well; with and without Rat Liver S9mix; positive = revertant colonies twice or more of control
Experimental: (4) Miniscreen Method for Examining Presence of Genetic Toxicity:
Reverse mutation-inducing activity of the test comounds on bacteira was examined by Miniscreen method (Environ. Mol. Mutagen., 35, 72-77). Salmonella typhimurium TA100 and TA98, and Escherichia coli WP2 uvrA strains were used for the test. The test was conducted by plate incorporation method as to both cases where metabolic activation was not conducted, or conducted. The dosages were set at six levels as 0, 10, 50, 100, 500 and 1,000 μg/well.
To the minimum glucose-agar medium formed on a 6-well plate, 0.02 mL of a test compound solution or a solvent, 0.1 mL of 0.1 M sodium-phosphate buffer (pH=7.4), 0.025 mL of the bacterial suspension and 0.5 mL of soft agar solution were added per well and mixed. Where metabolic activation was conducted, 0.1M sodium-phosphate buffer (pH=7.4) was replaced with 0.1 mL of Rat Liver S9mix. After the soft agar solution solidified, the bacterial strains were cultured at 37° C. for 48 hours. At the end of the culture the number of revertant colonies on the plate was visually counted using a colony counter. Reverse mutation inducing activity of each of the test compounds was judged to be positive where the number of the revertant colonies increased by twice or more than that in the solvent-added control well, and judged negative where the increase was equivalent to the control. […]

[2] = test system: Chinese hamster lung fibroblast cells (CHL/IU cells); assay: In vitro micronucleus cell induction test; format: cell-based
Experimental: (5) In vitro Micronucleus Cell Induction Test for Examining Genetic Toxicity: Presence of micronucleited cell-inducing activity of the test compounds on cultured cells due to chromosome aberration was examined by in vitro micronucleus test (mutagenesis test, 3, 238-245) by Lab-Tek method. The test was conducted by continuous treatment method, using Chinese hamster lung fibroblast cells (CHL/IU cells). The test compound concentration was set at three levels: 50% proliferation inhibitory concentration (IC50), and at the concentration levels attained by diluting it by common ratio one time and two times. […] One (1) mL of 0.075 M aqueous potassium chloride solution was added and a 5 minutes' hypotonic treatment was conducted at room temperature. After termination of the hypotonic treatment, the cells were fixed with a fixative (methanol: acetic acid=99:1). The slide detached from the chamber was stained with an aqueous […] orange solution (40 μg/mL). […] In the case wherein the micronucleited cells increased by a rate twice or more than that in the control well to which the solvent only had been added, the micronucleited cell induction activity was judged positive, and in the case wherein the increase rate was equivalent to that of the control, negative. The test results were as shown in the following Table 4, concurrently with the results of the test (4).

## N#Cc1cc(OS(N)(=O)=O)ccc1N1CCN(CCCC2CCCCC2)CC1 [Example 13, 3-cyano-4-[4-(3-cyclohexylpropyl)piperazin-1-yl]-phenyl-O-sulfamate]
[1]
  Miniscreen method (reverse mutation inducing activity): negative
[2]
  In vitro micronucleited cell induction test: negative
